The source made the active and inactive calls. No stated cut-off is given here; in the data, actives have a measured IC50 and inactives only a lower limit.

In the assay the target is Envelope glycoprotein gp160 (Human immunodeficiency virus 1, UniProt Q6QLK5). Nature of the assay: cell-free HIV fusion peptide-binding blockers – biochemical, uHTS, fluorescence dequenching, […] (AID 1986).
Sequence of Envelope glycoprotein gp160 (Q6QLK5 whole entry, the tested form may be a part): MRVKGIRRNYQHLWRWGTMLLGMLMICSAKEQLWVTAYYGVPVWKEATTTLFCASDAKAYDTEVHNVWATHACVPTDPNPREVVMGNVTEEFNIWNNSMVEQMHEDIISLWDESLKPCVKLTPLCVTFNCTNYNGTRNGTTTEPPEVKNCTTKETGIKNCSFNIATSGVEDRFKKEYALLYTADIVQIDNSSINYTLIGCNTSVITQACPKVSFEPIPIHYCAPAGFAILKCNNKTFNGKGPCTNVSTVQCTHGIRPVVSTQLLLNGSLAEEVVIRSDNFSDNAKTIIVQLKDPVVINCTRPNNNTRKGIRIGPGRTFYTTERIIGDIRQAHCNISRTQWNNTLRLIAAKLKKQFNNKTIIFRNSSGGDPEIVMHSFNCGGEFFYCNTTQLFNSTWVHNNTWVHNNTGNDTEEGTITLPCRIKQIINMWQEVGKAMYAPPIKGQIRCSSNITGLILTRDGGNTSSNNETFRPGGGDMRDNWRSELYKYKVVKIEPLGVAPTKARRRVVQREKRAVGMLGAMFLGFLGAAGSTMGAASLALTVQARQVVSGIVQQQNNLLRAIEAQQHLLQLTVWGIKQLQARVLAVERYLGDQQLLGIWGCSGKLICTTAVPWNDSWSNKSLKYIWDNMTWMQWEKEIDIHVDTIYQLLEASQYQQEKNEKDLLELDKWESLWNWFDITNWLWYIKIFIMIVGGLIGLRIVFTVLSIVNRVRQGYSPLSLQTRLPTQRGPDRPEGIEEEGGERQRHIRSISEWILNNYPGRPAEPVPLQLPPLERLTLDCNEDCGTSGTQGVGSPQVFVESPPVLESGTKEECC
As a reminder, the IC50 is the concentration at which inhibition is half-maximal. In the case of `CCS(=O)(=O)C1=NSC2=NC(=O)/C(=C\c3ccc(OS(=O)(=O)c4ccccc4)c(OC)c3)C(=N)N21`, the IC50 was 16.8 µM (active).
In the case of `CCOc1ccc2nc(NC(=O)CSc3nc(O)c(C#N)c(-c4ccccc4)n3)sc2c1`, the IC50 is 11.1 µM (active).
Regarding `O=C(NN1C(=O)/C(=C/c2ccc(O)cc2)SC1=S)c1ccccc1O`, the IC50 was 23.6 µM (active).

Values taken from ChEMBL document CHEMBL1201862, “PubChem BioAssay data set” (2004).
